According to ChEMBL document CHEMBL1201862, “PubChem BioAssay data set” (2004):
Activity calls are given as the source filed them.

Experiments:
[1] = inhibitors of HIV Env-driven cell fusion, dose response, cherry-pick (AID 652057); assay type: functional, cell-based
[2] = off-target signal loss in HeLa-CEM21 co-culture – HeLa F-luc CTL cells, cherry-picked, counter-screen for HIV-1 Env fusion inhibitor project, dose response (AID 652040); assay type: functional, cell-based;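 note: potency for signal decrease marking cytotoxic or nonspecific inhibition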
[3] = inhibitors of clade B AD8 Env fusion, dose response, cell-based, cherry-pick (AID 652062); assay type: functional;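 note: luciferase signal from cell-cell fusion driven by HIV-1 clade B AD8 Env; potency is for inhibitors of fusion seen as a drop in luminescence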
[4] = ZM109 Env clade C HIV-1 fusion inhibitors, dose response, HeLa effector, CEM target cells, luciferase, cherry-pick (AID 652058); assay type: functional, cell-based
[5] = target: Cyclin-dependent kinase 5/CDK5 activator 1 (Homo sapiens, UniProt Q00535); assay: CDK5/p35 kinase inhibitors, dose response, biochemical, cherry-picked samples, set 2 (AID 504545)
Chain of Cyclin-dependent kinase 5/CDK5 activator 1 (Q00535 whole entry): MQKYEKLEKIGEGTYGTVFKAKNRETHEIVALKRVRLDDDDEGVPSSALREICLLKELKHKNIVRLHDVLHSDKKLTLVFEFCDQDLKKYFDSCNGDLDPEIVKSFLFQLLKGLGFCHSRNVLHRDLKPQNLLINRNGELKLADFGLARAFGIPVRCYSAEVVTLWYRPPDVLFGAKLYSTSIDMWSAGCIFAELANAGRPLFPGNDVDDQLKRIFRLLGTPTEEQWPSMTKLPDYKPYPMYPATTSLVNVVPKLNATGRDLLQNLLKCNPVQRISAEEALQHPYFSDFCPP
Chain of Cyclin-dependent kinase 5/CDK5 activator 1 (Q15078 whole entry, further chain): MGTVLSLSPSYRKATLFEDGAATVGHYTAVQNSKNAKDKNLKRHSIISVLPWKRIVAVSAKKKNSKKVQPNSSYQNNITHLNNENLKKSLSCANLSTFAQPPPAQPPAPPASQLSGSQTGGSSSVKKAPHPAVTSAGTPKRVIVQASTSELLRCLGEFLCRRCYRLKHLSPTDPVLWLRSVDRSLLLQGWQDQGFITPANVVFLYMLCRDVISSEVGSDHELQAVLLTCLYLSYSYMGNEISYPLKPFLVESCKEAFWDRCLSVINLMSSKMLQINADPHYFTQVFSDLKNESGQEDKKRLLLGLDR

[6] = target: T1, Short transient receptor potential channel 4 (Mus musculus, UniProt Q9QUQ5); assay: mouse TRPC4 channel inhibitors, dose response, cell-based, HEK293 TRPC4/mu-opioid, Fluo-4 calcium (AID 434942); assay type: functional;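 note: potency of inhibitors blocking the TRPC4 calcium response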
T1 sequence (Q9QUQ5 whole entry): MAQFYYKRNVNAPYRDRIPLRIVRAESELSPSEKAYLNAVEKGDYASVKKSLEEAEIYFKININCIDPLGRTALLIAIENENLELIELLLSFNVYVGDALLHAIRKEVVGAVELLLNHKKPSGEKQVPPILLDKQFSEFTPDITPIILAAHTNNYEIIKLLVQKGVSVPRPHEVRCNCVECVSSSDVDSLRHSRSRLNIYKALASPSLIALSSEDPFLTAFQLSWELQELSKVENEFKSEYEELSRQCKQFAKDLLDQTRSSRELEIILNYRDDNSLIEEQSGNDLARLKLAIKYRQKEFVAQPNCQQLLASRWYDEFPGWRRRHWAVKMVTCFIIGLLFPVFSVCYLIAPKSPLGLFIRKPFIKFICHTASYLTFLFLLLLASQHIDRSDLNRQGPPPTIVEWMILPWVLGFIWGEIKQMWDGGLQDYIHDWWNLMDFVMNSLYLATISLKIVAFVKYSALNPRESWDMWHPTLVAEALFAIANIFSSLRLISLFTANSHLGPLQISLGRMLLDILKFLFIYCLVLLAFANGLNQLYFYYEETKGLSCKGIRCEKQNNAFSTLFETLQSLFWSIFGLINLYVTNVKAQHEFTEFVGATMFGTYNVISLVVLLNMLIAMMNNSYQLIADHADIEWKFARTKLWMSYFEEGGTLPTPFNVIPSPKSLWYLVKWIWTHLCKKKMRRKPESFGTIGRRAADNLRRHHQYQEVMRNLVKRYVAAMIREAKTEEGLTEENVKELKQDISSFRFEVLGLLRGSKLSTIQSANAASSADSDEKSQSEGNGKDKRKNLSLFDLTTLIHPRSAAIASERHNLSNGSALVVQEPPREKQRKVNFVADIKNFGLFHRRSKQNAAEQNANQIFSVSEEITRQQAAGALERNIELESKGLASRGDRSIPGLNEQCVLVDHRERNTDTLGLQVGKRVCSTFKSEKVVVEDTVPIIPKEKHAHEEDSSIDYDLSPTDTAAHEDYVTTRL

[7] = insulin promoter down-regulators in MIN6 cells, imaging, high-content screening, mouse beta cells (AID 1628); assay type: functional
[8] = CEM21 lymphoblast cell cytotoxicity, dose response, cytotoxicity control for viral fusion inhibitor project, CellTiter-Glo luminescence, cherry-picked (AID 652042); assay type: functional, cell-based;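 note: potency for signal decrease meaning cytotoxicity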
[9] = cytotoxicity in MIN6 insulinoma cells, dose response, cytotoxicity control, cell-based, mouse insulinoma (AID 2122); assay type: functional;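 note: confirmatory high-throughput counterscreen run to flag cytotoxic compounds; mouse MIN-6 beta cells carrying an insulin promoter eGFP reporter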
[10] = target: G-protein coupled receptor 55 (Homo sapiens, UniProt Q9Y2T6); assay: GPR55 antagonists, SAR follow-up, counter-screen for GPR35 antagonist project, imaging, image-based (AID 2397); assay type: functional
Chain of G-protein coupled receptor 55 (Q9Y2T6 whole entry): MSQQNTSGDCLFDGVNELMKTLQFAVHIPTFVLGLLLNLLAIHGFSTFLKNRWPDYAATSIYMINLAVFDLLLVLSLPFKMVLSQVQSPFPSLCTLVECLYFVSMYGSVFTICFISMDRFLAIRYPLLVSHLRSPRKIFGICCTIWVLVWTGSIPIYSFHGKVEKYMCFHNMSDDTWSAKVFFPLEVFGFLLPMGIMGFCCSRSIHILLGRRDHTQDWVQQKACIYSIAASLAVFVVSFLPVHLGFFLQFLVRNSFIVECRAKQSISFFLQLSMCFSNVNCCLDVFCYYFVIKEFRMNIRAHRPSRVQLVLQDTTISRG

[11] = target: Voltage-dependent T-type calcium channel subunit alpha-1H (Homo sapiens, UniProt O95180); assay: Cav3.2 T-type channel blockers, cell-based, SynthLib3 library, HEK293 Cav3.2, fluorescence (AID 493041); assay type: functional
Chain of Voltage-dependent T-type calcium channel subunit alpha-1H (O95180 whole entry): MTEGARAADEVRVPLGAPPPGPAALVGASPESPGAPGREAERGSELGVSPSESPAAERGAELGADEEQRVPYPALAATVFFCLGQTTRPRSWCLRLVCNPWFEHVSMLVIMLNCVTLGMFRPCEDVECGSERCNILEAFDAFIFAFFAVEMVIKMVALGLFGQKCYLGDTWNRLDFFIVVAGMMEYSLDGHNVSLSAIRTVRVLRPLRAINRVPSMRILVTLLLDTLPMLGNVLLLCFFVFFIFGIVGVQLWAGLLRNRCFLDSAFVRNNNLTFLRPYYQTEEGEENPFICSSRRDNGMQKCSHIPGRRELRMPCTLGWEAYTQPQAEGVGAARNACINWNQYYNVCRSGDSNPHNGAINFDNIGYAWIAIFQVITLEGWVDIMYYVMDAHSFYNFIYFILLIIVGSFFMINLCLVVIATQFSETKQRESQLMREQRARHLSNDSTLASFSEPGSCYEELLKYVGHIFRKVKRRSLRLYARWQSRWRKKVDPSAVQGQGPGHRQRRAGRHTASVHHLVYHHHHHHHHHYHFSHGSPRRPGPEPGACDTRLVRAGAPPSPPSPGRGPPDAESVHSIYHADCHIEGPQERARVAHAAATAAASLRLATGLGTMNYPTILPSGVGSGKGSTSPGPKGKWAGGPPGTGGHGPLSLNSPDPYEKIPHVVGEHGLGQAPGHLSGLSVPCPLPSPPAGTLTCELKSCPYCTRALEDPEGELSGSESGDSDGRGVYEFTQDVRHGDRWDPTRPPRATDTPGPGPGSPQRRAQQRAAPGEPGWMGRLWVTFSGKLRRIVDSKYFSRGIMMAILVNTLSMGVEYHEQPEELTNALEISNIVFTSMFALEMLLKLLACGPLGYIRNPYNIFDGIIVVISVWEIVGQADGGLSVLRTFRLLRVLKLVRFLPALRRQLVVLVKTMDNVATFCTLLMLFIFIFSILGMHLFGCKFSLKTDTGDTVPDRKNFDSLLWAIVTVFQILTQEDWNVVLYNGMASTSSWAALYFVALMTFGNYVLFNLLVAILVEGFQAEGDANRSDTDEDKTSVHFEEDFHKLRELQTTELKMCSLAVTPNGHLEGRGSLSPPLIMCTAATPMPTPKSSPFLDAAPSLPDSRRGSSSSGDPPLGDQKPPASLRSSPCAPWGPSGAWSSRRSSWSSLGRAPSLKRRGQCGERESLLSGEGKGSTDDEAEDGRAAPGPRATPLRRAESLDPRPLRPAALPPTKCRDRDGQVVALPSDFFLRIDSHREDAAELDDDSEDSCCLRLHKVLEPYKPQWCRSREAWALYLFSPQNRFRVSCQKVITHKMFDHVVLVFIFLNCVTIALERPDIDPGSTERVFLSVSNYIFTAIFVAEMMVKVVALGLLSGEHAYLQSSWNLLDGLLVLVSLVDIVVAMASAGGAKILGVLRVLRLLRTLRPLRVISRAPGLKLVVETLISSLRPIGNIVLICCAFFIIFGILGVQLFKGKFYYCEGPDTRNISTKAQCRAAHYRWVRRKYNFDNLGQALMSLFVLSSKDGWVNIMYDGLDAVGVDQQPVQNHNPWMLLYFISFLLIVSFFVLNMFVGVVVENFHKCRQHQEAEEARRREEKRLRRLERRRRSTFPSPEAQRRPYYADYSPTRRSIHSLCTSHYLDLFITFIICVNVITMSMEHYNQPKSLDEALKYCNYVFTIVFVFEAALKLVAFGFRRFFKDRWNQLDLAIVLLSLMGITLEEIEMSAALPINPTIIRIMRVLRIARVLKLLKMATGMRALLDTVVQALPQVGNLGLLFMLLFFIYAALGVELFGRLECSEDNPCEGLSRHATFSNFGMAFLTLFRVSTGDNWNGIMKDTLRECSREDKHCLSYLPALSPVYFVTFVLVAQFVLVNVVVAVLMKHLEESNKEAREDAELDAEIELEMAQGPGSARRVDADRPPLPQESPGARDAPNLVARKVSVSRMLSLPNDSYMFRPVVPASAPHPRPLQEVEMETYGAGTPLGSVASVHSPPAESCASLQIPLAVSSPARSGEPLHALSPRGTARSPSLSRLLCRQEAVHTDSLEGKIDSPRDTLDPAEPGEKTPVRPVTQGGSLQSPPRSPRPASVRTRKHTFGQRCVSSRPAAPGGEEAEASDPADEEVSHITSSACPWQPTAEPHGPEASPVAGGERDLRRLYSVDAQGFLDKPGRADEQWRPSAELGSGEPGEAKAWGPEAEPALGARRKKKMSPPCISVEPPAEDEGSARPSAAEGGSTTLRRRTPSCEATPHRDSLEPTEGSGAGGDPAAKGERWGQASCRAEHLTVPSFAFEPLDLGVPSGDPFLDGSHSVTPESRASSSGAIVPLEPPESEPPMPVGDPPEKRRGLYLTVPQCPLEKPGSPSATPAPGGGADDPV

[12] = target: Delta-type opioid receptor (Homo sapiens, UniProt P41143); assay: Counterscreen for agonists of heterodimerization of the mu 1 (OPRM1) and delta 1 (OPRD1) opioid receptors: Luminescence-based cell-based high throughput dose response assay to identify agonists of OPRD1 homodimerization. [Related pubchem assays (depositor defined):AID504326, AID504355, AID504692, AID504904, AID504905]; assay type: functional
Chain of Delta-type opioid receptor (P41143 whole entry): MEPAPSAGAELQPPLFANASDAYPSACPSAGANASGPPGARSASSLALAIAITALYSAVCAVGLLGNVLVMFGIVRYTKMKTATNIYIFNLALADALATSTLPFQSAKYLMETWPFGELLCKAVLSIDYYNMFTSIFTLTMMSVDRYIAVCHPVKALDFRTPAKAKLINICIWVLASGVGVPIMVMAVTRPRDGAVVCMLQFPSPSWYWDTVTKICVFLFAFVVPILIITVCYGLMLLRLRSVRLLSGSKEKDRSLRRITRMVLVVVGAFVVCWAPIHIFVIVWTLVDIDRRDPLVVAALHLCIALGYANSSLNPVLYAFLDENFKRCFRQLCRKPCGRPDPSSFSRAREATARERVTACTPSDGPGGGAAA

Mu-type opioid receptor = Mu-type opioid receptor (Homo sapiens, UniProt P35372); assay: Counterscreen for agonists of heterodimerization of the mu 1 (OPRM1) and delta 1 (OPRD1) opioid receptors: Luminescence-based cell-based high throughput dose response assay to identify agonists of OPRM1 homodimerization.; assay type: functional;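 note: U2OS cells expressing OPRM1 and beta-arrestin as split beta-galactosidase partners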
Chain of Mu-type opioid receptor (P35372 whole entry): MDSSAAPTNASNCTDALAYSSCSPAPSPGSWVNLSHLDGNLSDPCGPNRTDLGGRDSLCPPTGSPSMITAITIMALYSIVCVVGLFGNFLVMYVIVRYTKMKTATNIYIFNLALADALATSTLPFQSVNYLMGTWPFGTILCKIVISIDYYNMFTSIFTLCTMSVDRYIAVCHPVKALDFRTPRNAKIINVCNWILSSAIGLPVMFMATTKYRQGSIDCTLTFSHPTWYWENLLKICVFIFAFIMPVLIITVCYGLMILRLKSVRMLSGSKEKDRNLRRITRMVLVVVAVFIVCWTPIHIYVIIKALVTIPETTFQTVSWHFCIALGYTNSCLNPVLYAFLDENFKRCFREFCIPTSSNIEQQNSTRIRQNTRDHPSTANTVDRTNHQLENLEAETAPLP

[13] = target: T1, Short transient receptor potential channel 4; assay: mouse TRPC4 channel activators, dose response, cell-based, HEK293 TRPC4/mu-opioid, Fluo-4 calcium (AID 434937); assay type: functional
[14] = target: 5-hydroxytryptamine receptor 5A (Homo sapiens, UniProt P47898); assay: Counterscreen for agonists of OPRM1-OPRD1 heterodimerization: luminescence-based cell-based high throughput dose response assay to identify agonists of 5-hydroxytryptamine (serotonin) 5A receptor (HTR5A). [Related pubchem assays (depositor defined):AID504326, AID504355, AID504692, AID504904, AID504905]; assay type: functional
Chain of 5-hydroxytryptamine receptor 5A (P47898 whole entry): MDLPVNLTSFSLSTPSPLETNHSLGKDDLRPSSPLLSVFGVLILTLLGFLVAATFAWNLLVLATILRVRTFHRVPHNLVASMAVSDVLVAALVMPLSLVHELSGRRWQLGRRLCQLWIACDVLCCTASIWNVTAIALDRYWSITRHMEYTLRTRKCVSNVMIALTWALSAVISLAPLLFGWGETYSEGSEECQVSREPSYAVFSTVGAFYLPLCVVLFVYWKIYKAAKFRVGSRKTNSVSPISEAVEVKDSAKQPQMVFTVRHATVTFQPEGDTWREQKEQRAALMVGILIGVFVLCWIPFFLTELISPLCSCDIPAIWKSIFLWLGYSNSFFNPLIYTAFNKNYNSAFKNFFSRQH

[15] = target: UDP-galactopyranose mutase (Mycobacterium tuberculosis, UniProt P9WIQ1); assay: Inhibitors of Mycobacterium tuberculosis UDP-galactopyranose mutase (UGM) enzyme Measured in Biochemical System Using Plate Reader - 2105-02_Inhibitor_Dose_CherryPick_Activity. [Related pubchem assays (depositor defined):AID504439]
Chain of UDP-galactopyranose mutase (P9WIQ1 whole entry): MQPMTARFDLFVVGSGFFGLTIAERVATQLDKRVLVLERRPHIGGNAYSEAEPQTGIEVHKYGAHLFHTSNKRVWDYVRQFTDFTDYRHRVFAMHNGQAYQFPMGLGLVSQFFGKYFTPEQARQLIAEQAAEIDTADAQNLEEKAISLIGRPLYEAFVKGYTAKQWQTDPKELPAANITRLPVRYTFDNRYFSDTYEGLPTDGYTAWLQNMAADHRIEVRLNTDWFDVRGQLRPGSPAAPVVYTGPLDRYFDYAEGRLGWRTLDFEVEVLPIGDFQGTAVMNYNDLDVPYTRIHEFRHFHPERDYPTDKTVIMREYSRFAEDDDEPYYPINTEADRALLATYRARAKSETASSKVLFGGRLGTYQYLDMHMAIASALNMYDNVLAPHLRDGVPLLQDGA

In the case of `CCCn1c(NC(=O)c2cccc(S(=O)(=O)N3CCCC3)c2)nc2ccccc21`, the AC50 [1] is reported as 8.66 µM (active), the AC50 [2] is reported as 20.4 µM (active) and the AC50 [3] is reported as 9.76 µM (active). The AC50 [4] was 11.2 µM (active), the AC50 [5] was 3.94 µM (active) and the EC50 [6] was 0.749 µM (active). The IC50 [7] was 3.34 µM (active), the AC50 [8] was 9.5 µM (active) and the IC50 [9] was 4.19 µM (active).

For `c1ccc(-c2n[n+](-c3ccccc3)c(-c3ccccc3)s2)cc1`, the IC50 [10] was > 32 µM (inactive).

In the case of `CC(C)(C)Cc1nnc(NC(=O)COc2ccc(Cl)cc2Cl)o1`, the EC50 [11] is reported as 0.81 µM (active).

For `CCOC(=O)C1(CCOc2ccccc2)CCN(Cc2cnc(C)s2)CC1`, the EC50 [12] was > 92.5 µM (inactive), the EC50 (Mu-type opioid receptor) was > 92.5 µM (inactive) and the EC50 [13] was 0.237 µM (active). For the same compound, the EC50 [14] was > 92.5 µM (inactive).

In the case of `CCOC(=O)c1c(O)[n+]([O-])c2ccc(OC)cc2[n+]1[O-]`, the AC50 [15] is reported as 200 µM (active).
